Laboratory results published in US6506772B1, “Substituted [1,2,4]triazolo[1,5a]pyridine derivatives with activity as adenosine receptor ligands” (Hoffmann-La Roche Inc., priority 2000, dated 2003).

Legend:
[1] = molecular target: T1, human adenosine A2A receptor (Homo sapiens, UniProt P29274); experiment: Human adenosine A2A receptor [3H]-SCH-58261 binding assay; details: for Ki: affinity to human adenosine A2A receptor, read-out: Ki HA2A; for selectivity (A1/A2a): calculated ratio of the affinity to the HA1 receptor to the HA2a receptor
T1 construct: expressed in transfected cells; host or cells: CHO cells, Semliki Forest virus expression system; membrane preparation

HA1 adenosine receptor = molecular target: T2, HA1 adenosine receptor (Homo sapiens, UniProt P30542); experiment: Human adenosine A1 receptor affinity (Ki hA1); format: binding; details: affinity to human adenosine A1 receptor
T2 sequence (P30542 1-326): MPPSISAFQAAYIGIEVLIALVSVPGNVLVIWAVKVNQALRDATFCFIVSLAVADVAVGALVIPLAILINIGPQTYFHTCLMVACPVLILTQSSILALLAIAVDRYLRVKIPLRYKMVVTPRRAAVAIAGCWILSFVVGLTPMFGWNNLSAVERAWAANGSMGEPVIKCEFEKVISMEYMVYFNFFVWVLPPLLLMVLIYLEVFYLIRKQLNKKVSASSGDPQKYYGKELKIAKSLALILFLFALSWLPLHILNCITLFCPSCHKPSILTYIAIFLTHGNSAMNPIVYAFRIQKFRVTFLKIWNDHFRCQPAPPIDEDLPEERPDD

T1 sequence (P29274 whole entry): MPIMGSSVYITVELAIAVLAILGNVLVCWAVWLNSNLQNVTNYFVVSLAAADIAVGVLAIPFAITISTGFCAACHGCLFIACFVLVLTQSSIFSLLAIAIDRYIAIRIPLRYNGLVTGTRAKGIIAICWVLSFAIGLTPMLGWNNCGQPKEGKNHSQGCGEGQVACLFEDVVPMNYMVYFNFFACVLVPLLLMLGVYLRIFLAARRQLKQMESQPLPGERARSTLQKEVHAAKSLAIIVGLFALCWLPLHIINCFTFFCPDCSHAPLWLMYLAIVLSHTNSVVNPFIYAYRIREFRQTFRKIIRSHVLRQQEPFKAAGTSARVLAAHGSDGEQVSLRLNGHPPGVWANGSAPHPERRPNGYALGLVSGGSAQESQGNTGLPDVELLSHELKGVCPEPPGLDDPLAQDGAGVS

Ki [1]	selectivity (A1/A2a) [1]	Ki (HA1 adenosine receptor)	SMILES
29.2 nM	1.7	48.3 nM	COc1ccccc1CNC(=O)c1cc(N)n2nc(-c3ccccc3)nc2c1 [Example 220, 5-Amino-2-phenyl-[1,2,4]triazolo[1,5-a]pyridine-7-carboxylic acid 2-methoxy-benzylamide]
308 nM	7.3	2260 nM	CCN(C(=O)c1cc(N)n2nc(-c3ccoc3)nc2c1)C(C)C [Example 221, 5-Amino-2-furan-3-yl-[1,2,4]triazolo[1,5-a]pyridine-7-carboxylic acid ethyl-isopropyl-amide]
241 nM	8.5	2050 nM	CN(C(=O)c1cc(N)n2nc(-c3ccoc3)nc2c1)C1CCCCC1 [Example 222, 5-Amino-2-furan-3-yl-[1,2,4]triazolo[1,5-a]pyridine-7-carboxylic acid cyclohexyl-methyl-amide]
44.1 nM	9.4	414 nM	Nc1cc(C(=O)NC2CCc3ccccc32)cc2nc(-c3ccoc3)nn12 (stereo not drawn) [Example 223, 5-Amino-2-furan-3-yl-[1,2,4]triazolo[1,5-a]pyridine-7-carboxylic acid indan-1-ylamide]
47.4 nM	4.5	216 nM	Nc1cc(C(=O)NCc2ccccc2)cc2nc(-c3ccoc3)nn12 [Example 224, 5-Amino-2-furan-3-yl-[1,2,4]triazolo[1,5-a]pyridine-7-carboxylic acid benzylamide]
103 nM	1.2	125 nM	CC(NC(=O)c1cc(N)n2nc(-c3ccoc3)nc2c1)c1ccccc1 (stereo not drawn) [Example 225, 5-Amino-2-furan-3-yl-[1,2,4]triazolo[1,5-a]pyridine-7-carboxylic acid (1-phenyl-ethyl)-amide]
121 nM	8.4	1010 nM	CN(Cc1ccccc1)C(=O)c1cc(N)n2nc(-c3ccoc3)nc2c1 [Example 226, 5-Amino-2-furan-3-yl-[1,2,4]triazolo[1,5-a]pyridine-7-carboxylic acid benzyl-methyl-amide]
192 nM	3.8	736 nM	Nc1cc(C(=O)NCc2ccc(F)cc2)cc2nc(-c3ccoc3)nn12 [Example 227, 5-Amino-2-furan-3-yl-[1,2,4]triazolo[1,5-a]pyridine-7-carboxylic acid 4-fluoro-benzylamide]
30.5 nM	5.4	164 nM	COc1ccccc1CNC(=O)c1cc(N)n2nc(-c3ccoc3)nc2c1 [Example 228, 5-Amino-2-furan-3-yl-[1,2,4]triazolo[1,5-a]pyridine-7-carboxylic acid 2-methoxy-benzylamide]
7.2 nM	38.7	280 nM	CCN(CC)C(=O)c1cc(N)n2nc(-c3ccc(Cl)o3)nc2c1 [Example 233, 5-Amino-2-(5-chloro-furan-2-yl)-[1,2,4]triazolo[1,5-a]pyridine-7-carboxylic acid diethylamide]
69.5 nM	6.6	455 nM	Nc1cc(C(=O)NC2CCCCC2)cc2nc(-c3ccc(Cl)o3)nn12 [Example 234, 5-Amino-2-(5-chloro-furan-2-yl)-[1,2,4]triazolo[1,5-a]pyridine-7-carboxylic acid cyclohexylamide]
18.1 nM	42.5	770 nM	Nc1cc(C(=O)N2CCCC2)cc2nc(-c3ccc(Cl)o3)nn12 [Example 235, [5-Amino-2-(5-chloro-furan-2-yl)-[1,2,4]triazolo[1,5-a]pyridin-7-yl]-pyrrolidin-1-yl-methanone]
9.2 nM	35.2	325 nM	Nc1cc(C(=O)N2CCCCC2)cc2nc(-c3ccc(Cl)o3)nn12 [Example 236, [5-Amino-2-(5-chloro-furan-2-yl)-[1,2,4]triazolo[1,5-a]pyridin-7-yl]-piperidin-1-yl-methanone]
52.3 nM	13.5	708 nM	Nc1cc(C(=O)N2CCOCC2)cc2nc(-c3ccc(Cl)o3)nn12 [Example 237, [5-Amino-2-(5-chloro-furan-2-yl)-[1,2,4]triazolo[1,5-a]pyridin-7-yl]-morpholin-4-yl-methanone]
40.4 nM	2.3	94.3 nM	Nc1cc(C(=O)NCc2ccccc2)cc2nc(-c3ccc(Cl)o3)nn12 [Example 238, 5-Amino-2-(5-chloro-furan-2-yl)-[1,2,4]triazolo[1,5-a]pyridine-7-carboxylic acid benzylamide]
1.7 nM	14.6	25.1 nM	CC(C)N(Cc1ccccc1)C(=O)c1cc(N)n2nc(-c3ccc(Cl)o3)nc2c1 [Example 239, 5-Amino-2-(5-chloro-furan-2-yl)-[1,2,4]triazolo[1,5-a]pyridine-7-carboxylic acid benzyl-isopropyl-amide]
6.5 nM	19.0	124 nM	CN(C(=O)c1cc(N)n2nc(-c3ccc(Cl)o3)nc2c1)C1CCCCC1 [Example 242, 5-Amino-2-(5-chloro-furan-2-yl)-[1,2,4]triazolo[1,5-a]pyridine-7-carboxylic acid cyclohexyl-methyl-amide]
3.3 nM	28.6	95.6 nM	CCN(C(=O)c1cc(N)n2nc(-c3ccc(Cl)o3)nc2c1)C1CCCCC1 [Example 243, 5-Amino-2-(5-chloro-furan-2-yl)-[1,2,4]triazolo[1,5-a]pyridine-7-carboxylic acid cyclohexyl-ethyl-amide]
218 nM	0.9	190 nM	Nc1cc(C(=O)NCc2ccc(Cl)cc2)cc2nc(-c3ccc(Cl)o3)nn12 [Example 244, 5-Amino-2-(5-chloro-furan-2-yl)-[1,2,4]triazolo[1,5-a]pyridine-7-carboxylic acid 4-chloro-benzylamide]
155 nM	1.9	289 nM	Nc1cc(C(=O)NCc2ccc(F)cc2)cc2nc(-c3ccc(Cl)o3)nn12 [Example 245, 5-Amino-2-(5-chloro-furan-2-yl)-[1,2,4]triazolo[1,5-a]pyridine-7-carboxylic acid 4-fluoro-benzylamide]
24 nM	3.0	71.7 nM	COc1ccccc1CNC(=O)c1cc(N)n2nc(-c3ccc(Cl)o3)nc2c1 [Example 246, 5-Amino-2-(5-chloro-furan-2-yl)-[1,2,4]triazolo[1,5-a]pyridine-7-carboxylic acid 2-methoxy-benzylamide]
9.2 nM	17.6	161 nM	CN(CC1CC1)C(=O)c1cc(N)n2nc(-c3ccc(Cl)o3)nc2c1 [Example 247, 5-Amino-2-(5-chloro-furan-2-yl)-[1,2,4]triazolo[1,5-a]pyridine-7-carboxylic acid cyclopropylmethyl-methyl-amide]
44.3 nM	13.6	601 nM	CN(C)C(=O)c1cc(N)n2nc(-c3ccc(Cl)o3)nc2c1 [Example 248, 5-Amino-2-(5-chloro-furan-2-yl)-[1,2,4]triazolo[1,5-a]pyridine-7-carboxylic acid dimethylamide]
2090 nM	3.0	6210 nM	Nc1cc(C(=O)N2CCC2)cc2nc(-c3ccc(Cl)o3)nn12 [Example 249, [5-Amino-2-(5-chloro-furan-2-yl)-[1,2,4]triazolo[1,5-a]pyridin-7-yl]-azetidin-1-yl-methanone]
19.1 nM	24.0	459 nM	CCN(C)C(=O)c1cc(N)n2nc(-c3ccc(Cl)o3)nc2c1 [Example 250, 5-Amino-2-(5-chloro-furan-2-yl)-[1,2,4]triazolo[1,5-a]pyridine-7-carboxylic acid ethyl-methyl-amide]
14.7 nM	24.5	360 nM	C=CCN(C)C(=O)c1cc(N)n2nc(-c3ccc(Cl)o3)nc2c1 [Example 251, 5-Amino-2-(5-chloro-furan-2-yl)-[1,2,4]triazolo[1,5-a]pyridine-7-carboxylic acid allyl-methyl-amide]
15.5 nM	28.3	438 nM	CCCN(C)C(=O)c1cc(N)n2nc(-c3ccc(Cl)o3)nc2c1 [Example 252, 5-Amino-2-(5-chloro-furan-2-yl)-[1,2,4]triazolo[1,5-a]pyridine-7-carboxylic acid methyl-propyl-amide]
9.5 nM	28.9	276 nM	Nc1cc(C(=O)N2CC=CCC2)cc2nc(-c3ccc(Cl)o3)nn12 [Example 253]
11.2 nM	44.8	503 nM	CC1CCCN1C(=O)c1cc(N)n2nc(-c3ccc(Cl)o3)nc2c1 (stereo not drawn) [Example 254, [5-Amino-2-(5-chloro-furan-2-yl)-[1,2,4]triazolo[1,5-a]pyridin-7-yl]-(2-methyl-pyrrolidin-1-yl)-methanone]
3.2 nM	28.9	92.5 nM	CCN(C(=O)c1cc(N)n2nc(-c3ccc(Cl)o3)nc2c1)C(C)C [Example 255, 5-Amino-2-(5-chloro-furan-2-yl)-[1,2,4]triazolo[1,5-a]pyridine-7-carboxylic acid ethyl-isopropyl-amide]
